System: human monocytic cell line U937
Assay: Human U937 cellular necroptosis assay
Format: cell-based
Conditions: U-937; U937 cells stimulated with 25 ng/mL human TNFalpha and 25 μM z-VAD-FMK; 22 hr; viability by Cell Titer-Glo 2.0; read-out: hU937 IC50
How it was run: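 U937 cells (5000/well) driven to necroptosis by 25 ng/mL human TNFalpha plus 25 μM z-VAD-FMK alongside 1:3-diluted compounds, 22 hr at 37° C, 5% CO2. Viability by CellTiter-Glo luminescence; IC50 from four-parameter logistic fit.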

| Compound | IC50 [nM] |
| --- | --- |
| Cc1cnc(C(=O)N[C@H]2COc3cc(Cl)cnc3N(C)C2=O)nc1C1COCCO1 (stereo partly drawn) [Example 164, N—((S)-8-chloro-5-methyl-4-oxo-2,3,4,5-tetrahydropyrido[3,2-b][1,4]oxazepin-3-yl)-4-(1,4-dioxan-2-yl)-5-methylpyrimidine-2-carboxamide] | 357 |
| CN1C(=O)[C@@H](NC(=O)c2ncc(Cl)c(-c3cc(F)c(CO)c(F)c3)n2)COc2cc(F)cnc21 [Example 166, (S)-5-chloro-4-(3,5-difluoro-4-(hydroxymethyl)phenyl)-N-(8-fluoro-5-methyl-4-oxo-2,3,4,5-tetrahydropyrido[3,2-b][1,4]oxazepin-3-yl)pyrimidine-2-carboxamide] | 196 |
| O=C(N[C@H]1COc2cc(F)cnc2NC1=O)c1ncc(Cl)c(-c2ccc(F)cc2F)n1 [Example 167, (S)-5-chloro-4-(2,4-difluorophenyl)-N-(8-fluoro-4-oxo-2,3,4,5-tetrahydropyrido[3,2-b][1,4]oxazepin-3-yl)pyrimidine-2-carboxamide] | 464 |
| [2H]C([2H])([2H])N1C(=O)[C@@H](NC(=O)c2ncc(Cl)c(-c3cccc(F)c3F)n2)COc2cc(F)cnc21 [Example 168, (S)-5-chloro-4-(2,3-difluorophenyl)-N-(8-fluoro-5-(methyl-d3)-4-oxo-2,3,4,5-tetrahydropyrido[3,2-b][1,4]oxazepin-3-yl)pyrimidine-2-carboxamide] | 45.2 |
| [2H]C([2H])([2H])c1cnc(C(=O)N[C@H]2COc3cc(F)cnc3N(C([2H])([2H])[2H])C2=O)nc1-c1ccccc1F [Example 169, (S)—N-(8-fluoro-5-(methyl-d3)-4-oxo-2,3,4,5-tetrahydropyrido[3,2-b][1,4]oxazepin-3-yl)-4-(2-fluorophenyl)-5-(methyl-d3)pyrimidine-2-carboxamide] | 20.9 |
| [2H]C([2H])([2H])N1C(=O)[C@@H](NC(=O)c2ncc(C)c(-c3ccccc3F)n2)COc2cc(F)cnc21 [Example 170, (S)—N-(8-fluoro-5-(methyl-d3)-4-oxo-2,3,4,5-tetrahydropyrido[3,2-b][1,4]oxazepin-3-yl)-4-(2-fluorophenyl)-5-methylpyrimidine-2-carboxamide] | 15.8 |
| Cc1cnc(C(=O)N[C@H]2COc3ccc(S(C)(=O)=O)cc3N(C)C2=O)nc1-c1ccccc1F [Example 171, (S)-4-(2-fluorophenyl)-5-methyl-N-(5-methyl-7-(methylsulfonyl)-4-oxo-2,3,4,5-tetrahydrobenzo[b][1,4]oxazepin-3-yl)pyrimidine-2-carboxamide] | 120 |
| Cc1cnc(C(=O)N[C@H]2COc3cc(Cl)cnc3N(C)C2=O)nc1C1CC(F)(F)CCN1 (stereo partly drawn) [Example 172, N—((S)-8-chloro-5-methyl-4-oxo-2,3,4,5-tetrahydropyrido[3,2-b][1,4]oxazepin-3-yl)-4-(4,4-difluoropiperidin-2-yl)-5-methylpyrimidine-2-carboxamide] | 175 |

Source: patent US12565490B2, “Inhibitors of Receptor Interacting Protein Kinase I for the treatment of disease” (Board of Regents, The University of Texas System, priority 2020, dated 2026)
